{"source": "ChEMBL document CHEMBL1201862", "about": "“PubChem BioAssay data set” (2004)", "key": {"[1]": {"assay": "Trypanosoma cruzi growth suppression in host cells – NIH3T3 host cells, beta-gal luminescence, confirmation (AID 2044);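 note: intracellular parasites grown in NIH/3T3 mouse fibroblasts as host cells; luminescent beta-galactosidase reporter signal from transgenic T. cruzi replicating inside host cells; inhibitors lower the luminescence signal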", "format": "functional, cell-based"}, "[2]": {"assay": "NIH3T3 cell viability loss – ATP luminescence, mouse fibroblasts, counter-screen, dose response (AID 2010);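 note: cells exposed to compound for about 90 hours before reading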", "format": "functional, cell-based"}, "[3]": {"molecular_target": "Cytochrome P450 2D6 (Homo sapiens, UniProt P10635)", "sequence (P10635 whole entry)": "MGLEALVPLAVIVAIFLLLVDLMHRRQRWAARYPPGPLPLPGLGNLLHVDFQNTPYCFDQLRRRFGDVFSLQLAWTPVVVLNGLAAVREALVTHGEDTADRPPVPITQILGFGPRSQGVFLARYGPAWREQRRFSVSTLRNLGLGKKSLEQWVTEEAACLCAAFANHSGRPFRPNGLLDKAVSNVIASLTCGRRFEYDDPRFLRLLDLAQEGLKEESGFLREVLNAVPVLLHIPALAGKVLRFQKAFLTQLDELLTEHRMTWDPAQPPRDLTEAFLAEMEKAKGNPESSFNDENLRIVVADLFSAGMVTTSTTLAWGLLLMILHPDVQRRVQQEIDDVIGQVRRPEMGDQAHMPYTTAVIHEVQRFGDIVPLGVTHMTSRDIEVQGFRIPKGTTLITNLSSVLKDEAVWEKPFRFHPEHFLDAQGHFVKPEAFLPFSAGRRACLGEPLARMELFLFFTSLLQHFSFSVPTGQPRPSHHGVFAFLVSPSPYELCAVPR"}, "[4]": {"molecular_target": "T1, Cytochrome P450 1A2 (Homo sapiens, UniProt P05177)", "T1 sequence (P05177 whole entry)": "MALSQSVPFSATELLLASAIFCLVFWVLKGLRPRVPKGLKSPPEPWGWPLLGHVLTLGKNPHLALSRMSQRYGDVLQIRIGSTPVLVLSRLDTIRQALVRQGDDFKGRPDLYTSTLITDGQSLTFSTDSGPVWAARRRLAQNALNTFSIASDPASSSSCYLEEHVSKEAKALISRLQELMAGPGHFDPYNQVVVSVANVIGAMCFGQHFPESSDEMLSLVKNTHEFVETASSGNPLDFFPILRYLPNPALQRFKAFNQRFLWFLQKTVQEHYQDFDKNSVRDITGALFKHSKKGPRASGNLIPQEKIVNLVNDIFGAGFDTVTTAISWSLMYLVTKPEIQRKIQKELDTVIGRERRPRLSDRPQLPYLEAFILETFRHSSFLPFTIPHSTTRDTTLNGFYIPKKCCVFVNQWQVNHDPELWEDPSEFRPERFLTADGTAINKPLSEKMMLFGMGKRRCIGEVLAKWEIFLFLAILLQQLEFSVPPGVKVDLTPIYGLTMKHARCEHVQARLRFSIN"}, "[5]": {"molecular_target": "T2, Heat shock factor protein 1 (Mus musculus, UniProt P38532)", "T2 sequence (P38532 whole entry)": "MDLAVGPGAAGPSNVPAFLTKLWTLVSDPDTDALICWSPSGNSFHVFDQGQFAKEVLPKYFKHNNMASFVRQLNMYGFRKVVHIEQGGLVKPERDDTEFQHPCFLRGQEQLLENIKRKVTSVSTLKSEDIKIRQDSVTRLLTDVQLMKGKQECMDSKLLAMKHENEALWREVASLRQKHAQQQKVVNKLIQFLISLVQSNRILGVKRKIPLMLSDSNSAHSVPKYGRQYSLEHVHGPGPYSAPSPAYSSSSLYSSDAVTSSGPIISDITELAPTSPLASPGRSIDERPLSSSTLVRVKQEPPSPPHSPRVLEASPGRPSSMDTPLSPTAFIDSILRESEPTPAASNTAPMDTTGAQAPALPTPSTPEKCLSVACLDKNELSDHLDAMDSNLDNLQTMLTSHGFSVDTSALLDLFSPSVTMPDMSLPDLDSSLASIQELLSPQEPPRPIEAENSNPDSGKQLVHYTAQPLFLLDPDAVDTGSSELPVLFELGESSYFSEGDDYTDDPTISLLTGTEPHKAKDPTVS", "assay": "enhancement of HSF1-driven luciferase signal – cell-based, NIH3T3, luminescence, dose retest, confirmation (AID 435004);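 note: stress induced by proteasome inhibitor MG132 added 30 min after compound; actives raise luminescence as potentiators of the MG132 stress response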", "format": "functional"}, "[6]": {"assay": "reduction of Shn3 3'UTR-driven luciferase in osteoblasts – cell-based, Clone20 osteoblasts, firefly luciferase, cherry-picked, dose response (AID 624132)", "format": "functional"}, "[7]": {"assay": "loss of viability in HepG2 cells – cell-based, CellTiter-Glo, cherry-picked, cytotoxicity control for Shn3 inhibitor project, dose response (AID 624134)", "format": "functional"}, "[8]": {"assay": "non-specific 3'UTR reporter inhibition in Clone20-Shn3RL – cell-based, Renilla luciferase, cherry-picked, counter-screen for Shn3 inhibitor project, dose response (AID 624133)", "format": "functional"}, "[9]": {"assay": "cells", "format": "functional, cell-based"}, "[10]": {"assay": "cells", "format": "functional, cell-based", "remark": "listed apart in the source"}, "[11]": {"assay": "Luminescence Cell-Based Dose Retest to Confirm Inhibitors of Cancer Stem Cells. [Related pubchem assays (depositor defined):AID2717, AID2721]", "format": "functional", "details": "Homo sapiens"}, "[12]": {"molecular_target": "T3, Replicative DNA helicase DnaB (Mycobacterium tuberculosis, UniProt P9WMR3)", "T3 sequence (P9WMR3 whole entry)": "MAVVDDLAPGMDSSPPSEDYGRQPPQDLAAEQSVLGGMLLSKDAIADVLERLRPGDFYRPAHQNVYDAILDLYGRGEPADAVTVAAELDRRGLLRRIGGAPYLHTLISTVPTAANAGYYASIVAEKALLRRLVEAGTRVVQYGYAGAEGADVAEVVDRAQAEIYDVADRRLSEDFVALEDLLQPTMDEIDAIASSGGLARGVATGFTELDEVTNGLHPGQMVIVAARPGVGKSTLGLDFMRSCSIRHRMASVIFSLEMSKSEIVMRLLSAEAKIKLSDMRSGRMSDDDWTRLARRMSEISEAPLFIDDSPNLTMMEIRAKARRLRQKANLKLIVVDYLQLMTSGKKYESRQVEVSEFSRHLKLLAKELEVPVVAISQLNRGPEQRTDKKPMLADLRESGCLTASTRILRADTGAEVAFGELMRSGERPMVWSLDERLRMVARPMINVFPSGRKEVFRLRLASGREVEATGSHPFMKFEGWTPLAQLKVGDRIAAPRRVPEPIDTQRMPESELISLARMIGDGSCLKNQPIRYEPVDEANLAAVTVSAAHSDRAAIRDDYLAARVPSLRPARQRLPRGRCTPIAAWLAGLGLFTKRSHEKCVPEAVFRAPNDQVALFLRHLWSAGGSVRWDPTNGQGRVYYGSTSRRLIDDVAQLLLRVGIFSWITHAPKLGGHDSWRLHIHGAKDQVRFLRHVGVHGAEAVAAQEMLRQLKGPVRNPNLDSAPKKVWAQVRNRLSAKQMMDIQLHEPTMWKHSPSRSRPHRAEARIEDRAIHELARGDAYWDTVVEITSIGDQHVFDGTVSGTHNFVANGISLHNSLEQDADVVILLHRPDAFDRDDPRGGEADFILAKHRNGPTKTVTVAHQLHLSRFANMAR", "assay": "DnaB intein splicing inhibitors, dose response, biochemical, cell-free fluorescence (AID 449749)", "format": "functional"}, "[13]": {"molecular_target": "T4, Protein RecA (Mycobacterium tuberculosis, UniProt P9WHJ3)", "T4 sequence (P9WHJ3 whole entry)": "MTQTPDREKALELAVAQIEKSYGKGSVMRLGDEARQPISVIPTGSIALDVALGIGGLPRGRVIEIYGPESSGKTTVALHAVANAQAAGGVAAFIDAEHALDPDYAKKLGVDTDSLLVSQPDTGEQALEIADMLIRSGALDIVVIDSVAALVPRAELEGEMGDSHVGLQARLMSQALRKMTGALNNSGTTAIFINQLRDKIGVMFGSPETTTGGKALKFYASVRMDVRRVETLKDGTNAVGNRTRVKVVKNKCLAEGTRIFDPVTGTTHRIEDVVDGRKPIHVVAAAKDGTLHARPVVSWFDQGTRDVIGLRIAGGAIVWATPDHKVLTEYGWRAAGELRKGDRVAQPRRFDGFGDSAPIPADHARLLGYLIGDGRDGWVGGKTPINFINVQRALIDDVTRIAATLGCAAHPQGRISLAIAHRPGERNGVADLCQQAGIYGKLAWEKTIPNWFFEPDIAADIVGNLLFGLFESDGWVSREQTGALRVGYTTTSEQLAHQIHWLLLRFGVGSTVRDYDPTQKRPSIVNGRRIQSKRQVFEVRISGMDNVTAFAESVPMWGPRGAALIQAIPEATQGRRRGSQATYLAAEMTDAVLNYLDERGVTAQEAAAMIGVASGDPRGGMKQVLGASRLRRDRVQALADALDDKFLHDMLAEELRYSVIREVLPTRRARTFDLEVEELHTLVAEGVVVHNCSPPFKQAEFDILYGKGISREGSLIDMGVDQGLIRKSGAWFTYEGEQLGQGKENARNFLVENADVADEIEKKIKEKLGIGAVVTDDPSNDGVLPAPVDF", "assay": "Fluorescence Cell-Free Homogeneous Dose Retest to Identify Inhibitors of RecA-Intein Splicing Activity. [Related pubchem assays (depositor defined):AID2097, AID2223, AID489010, AID492950]", "format": "functional"}, "[14]": {"assay": "Luminescence Cell-Based Dose Response HTS to Identify Inhibitors of 5'UTR Stem-Loop Driven Prion Protein mRNA Translation in H4 Neuroglioblastoma Cells. [Related pubchem assays: 1827 (Project Summary), 1813 (Primary HTS)]", "format": "functional"}, "[15]": {"molecular_target": "Cytochrome P450 3A4 (Homo sapiens, UniProt P08684)", "sequence (P08684 whole entry)": "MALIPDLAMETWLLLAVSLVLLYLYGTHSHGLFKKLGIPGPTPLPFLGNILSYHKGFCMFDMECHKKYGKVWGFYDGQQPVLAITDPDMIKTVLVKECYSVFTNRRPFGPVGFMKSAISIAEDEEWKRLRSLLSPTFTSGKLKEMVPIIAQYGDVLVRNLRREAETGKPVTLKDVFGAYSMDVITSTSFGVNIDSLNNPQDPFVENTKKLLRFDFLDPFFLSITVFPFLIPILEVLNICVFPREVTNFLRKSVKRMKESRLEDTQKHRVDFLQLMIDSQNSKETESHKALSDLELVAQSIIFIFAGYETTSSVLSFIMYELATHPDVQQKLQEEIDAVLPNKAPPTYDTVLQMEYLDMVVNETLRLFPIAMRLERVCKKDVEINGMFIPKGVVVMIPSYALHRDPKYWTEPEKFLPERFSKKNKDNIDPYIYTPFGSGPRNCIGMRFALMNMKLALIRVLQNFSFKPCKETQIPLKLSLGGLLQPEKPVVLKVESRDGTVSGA"}, "[16]": {"assay": "viability of PTEN-deleted HCT116 cells – cell-based, HCT116 PTEN knockout, dose response (AID 1047);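 note: HCT116 colon tumor cells with PTEN knocked out; cells exposed to compound for 60 hours before readout; potency for loss of cell viability measured by luminescence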", "format": "functional"}, "[17]": {"assay": "viability of HCT116 lacking mutant beta-catenin – cell-based, human colon tumor, dose response (AID 1045);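 note: HCT116 colon tumor cells with beta catenin knocked out; cells exposed to compound for 60 hours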", "format": "functional"}}, "note": "Calls of active or inactive are those of the source.", "data": [{"smiles": "CC(C)(C)NS(=O)(=O)c1ccc(NC(=O)c2cc(-c3ccccc3)nc3ccccc23)cc1", "values": [{"measurement": "EC50", "setting": "[1]", "value": "2.03 µM (active)"}, {"measurement": "EC50", "setting": "[2]", "value": "> 60 µM (not active)"}, {"measurement": "AC50", "setting": "[3]", "value": "3.98 µM (inconclusive)"}, {"measurement": "AC50", "setting": "[4]", "value": "3.16 µM (inconclusive)"}]}, {"smiles": "Cc1ccc2nnn(Cc3cccc(C(C)(C)C)c3O)c2c1", "values": [{"measurement": "EC50", "setting": "[5]", "value": "> 260 µM (inactive)"}, {"measurement": "AC50", "setting": "[6]", "value": "5.44 µM (active)"}, {"measurement": "AC50", "setting": "[7]", "value": "59.3 µM (active)"}, {"measurement": "AC50", "setting": "[8]", "value": "7.31 µM (active)"}]}, {"smiles": "CN(CC(=O)Nc1ccc(S(=O)(=O)N2CCCC2)cc1)CC(=O)Nc1cccc(F)c1", "values": [{"measurement": "EC50", "setting": "[9]", "value": "> 350 µM (not active)"}, {"measurement": "EC50", "setting": "[10]", "value": "> 350 µM (not active)"}]}, {"smiles": "O=C(NNC(=O)C(O)(c1ccccc1)c1ccccc1)C1CC1", "values": [{"measurement": "EC50", "setting": "[9]", "value": "> 350 µM (not active)"}, {"measurement": "EC50", "setting": "[10]", "value": "> 350 µM (not active)"}]}, {"smiles": "O=C(NCc1ccc2c(c1)OCO2)c1nc(S(=O)(=O)Cc2ccccc2F)ncc1Cl", "values": [{"measurement": "AC50", "setting": "[11]", "value": "5.02 µM (active)"}, {"measurement": "AC50", "setting": "[12]", "value": "2.6 µM (active)"}, {"measurement": "EC50", "setting": "[13]", "value": "3.25 µM (active)"}, {"measurement": "AC50", "setting": "[6]", "value": "5.19 µM (active)"}, {"measurement": "AC50", "setting": "[7]", "value": "31.1 µM (active)"}, {"measurement": "AC50", "setting": "[8]", "value": "5.92 µM (active)"}]}, {"smiles": "O=C(Nc1ccc(Br)cc1F)c1ccc2c(c1)OCCO2", "values": [{"measurement": "EC50", "setting": "[14]", "value": "10.8 µM (active)"}]}, {"smiles": "COc1ccc(C(=O)Nc2ccc(OCC(F)(F)C(F)F)c(C(F)(F)F)c2)cc1OC", "values": [{"measurement": "AC50", "setting": "[11]", "value": "3.78 µM (active)"}, {"measurement": "AC50", "setting": "[3]", "value": "22.4 µM (inconclusive)"}]}, {"smiles": "COc1ccc(CN(C)CC(=O)Nc2ccc(SC(F)F)cc2)cc1OC", "values": [{"measurement": "EC50", "setting": "[9]", "value": "> 350 µM (not active)"}, {"measurement": "EC50", "setting": "[10]", "value": "> 350 µM (not active)"}]}, {"smiles": "O=C(NC12CC3CC(CC(C3)C1)C2)C12CC3CC(C1)CC(n1cnc(Cl)n1)(C3)C2", "values": [{"measurement": "AC50", "setting": "[3]", "value": "11.2 µM (inconclusive)"}, {"measurement": "AC50", "setting": "[15]", "value": "14.1 µM (inconclusive)"}]}, {"smiles": "CN(CC(=O)Nc1cccc(S(=O)(=O)N2CCOCC2)c1)CC(=O)Nc1ccc(Cl)c(C(F)(F)F)c1", "values": [{"measurement": "AC50", "setting": "[6]", "value": "2.4 µM (active)"}, {"measurement": "AC50", "setting": "[7]", "value": "56.7 µM (active)"}, {"measurement": "AC50", "setting": "[8]", "value": "6.89 µM (active)"}]}, {"smiles": "COc1ccc(/N=c2\\oc3ccc(OC)cc3cc2-c2nc3ccccc3[nH]2)cc1", "values": [{"measurement": "EC50", "setting": "[16]", "value": "3.77 µM (active)"}, {"measurement": "EC50", "setting": "[17]", "value": "13 µM (active)"}]}, {"smiles": "Cc1cc(C)n(-c2nnc(C)n2/N=C/c2ccccc2OCc2ccccc2Cl)n1", "values": [{"measurement": "AC50", "setting": "[3]", "value": "28.2 µM (inconclusive)"}]}]}
